These results are taken from publication PMC4285139, “Target discovery of acivicin in cancer cells elucidates its mechanism of growth inhibition” (Chemical Science, 2014).

The IC50 is the concentration needed to halve the response being measured.

Assay [1] concerns the target T1, ALDH4A1 (Homo sapiens, UniProt P30038).
T1 sequence (P30038 25-563): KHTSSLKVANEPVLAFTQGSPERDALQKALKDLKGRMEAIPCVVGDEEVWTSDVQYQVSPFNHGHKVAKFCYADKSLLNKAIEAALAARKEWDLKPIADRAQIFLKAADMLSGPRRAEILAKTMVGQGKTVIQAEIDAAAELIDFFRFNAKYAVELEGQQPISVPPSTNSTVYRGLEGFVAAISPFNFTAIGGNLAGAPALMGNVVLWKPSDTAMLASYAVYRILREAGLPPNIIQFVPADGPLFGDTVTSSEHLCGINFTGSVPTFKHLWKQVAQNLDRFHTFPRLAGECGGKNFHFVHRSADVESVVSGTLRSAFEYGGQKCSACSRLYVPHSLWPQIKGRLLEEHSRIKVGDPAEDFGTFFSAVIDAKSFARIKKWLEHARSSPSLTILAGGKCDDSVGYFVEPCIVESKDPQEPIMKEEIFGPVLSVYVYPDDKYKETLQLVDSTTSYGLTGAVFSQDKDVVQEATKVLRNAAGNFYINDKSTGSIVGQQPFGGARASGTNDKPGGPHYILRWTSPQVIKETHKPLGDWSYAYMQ
Put plainly: enzyme inhibition assay with purified recombinant enzyme ([…] min pre-incubation); also ABPP labelling, lost in the Cys348Ala mutant. The format is biochemical.

The next assay concerns the target T2, ALDH1A1 (Homo sapiens, UniProt P00352).
T2 sequence (P00352 2-501): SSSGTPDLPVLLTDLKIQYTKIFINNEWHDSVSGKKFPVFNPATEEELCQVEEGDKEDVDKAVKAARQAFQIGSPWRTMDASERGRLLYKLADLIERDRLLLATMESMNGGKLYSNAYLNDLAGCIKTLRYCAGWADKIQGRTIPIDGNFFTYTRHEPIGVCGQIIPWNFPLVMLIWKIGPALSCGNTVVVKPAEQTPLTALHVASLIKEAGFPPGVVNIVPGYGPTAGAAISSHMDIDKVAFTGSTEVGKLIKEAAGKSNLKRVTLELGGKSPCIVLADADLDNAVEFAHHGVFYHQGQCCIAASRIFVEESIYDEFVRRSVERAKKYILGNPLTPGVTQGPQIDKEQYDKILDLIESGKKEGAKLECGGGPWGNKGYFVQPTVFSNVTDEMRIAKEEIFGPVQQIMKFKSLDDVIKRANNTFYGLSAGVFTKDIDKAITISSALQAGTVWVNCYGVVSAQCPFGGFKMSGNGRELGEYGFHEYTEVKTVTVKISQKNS
Put plainly: enzyme inhibition assay with purified recombinant enzyme ([…] min pre-incubation). The format is biochemical.

For assay [2], the target named is T1, ALDH4A1. Put plainly: enzyme inhibition assay with purified recombinant enzyme ([…] min pre-incubation); also competitive ABPP labelling in HepG2 lysate and cells. Format: biochemical.
Assay [3] addresses T1, ALDH4A1. Put plainly: pre-incubation of native enzyme blocks probe labelling (competitive ABPP). The format is cell-based.

For the compound `C#CCCCC(=O)N[C@H](C(=O)O)[C@@H]1CC(Cl)=NO1` [ACV1], on ALDH4A1 [1], the IC50 was determined as 0.7 µM.

Take `C#CCNC(=O)[C@@H](N)[C@@H]1CC(Cl)=NO1` [ACV2]: the IC50 on ALDH1A1 was 55 µM.

Regarding `N[C@H](C(=O)O)[C@@H]1CC(Cl)=NO1` [ACV, Acivicin], at ALDH4A1 [2], the IC50 was 5.4 µM.

Consider `C#CCCCC(=O)OC[C@H]1CC(Br)=NO1` [ACVL1], for which the IC50 at ALDH1A1 was determined as 0.3 µM.

As to `CCN(CC)C(=S)SSC(=S)N(CC)CC` [disulfiram], the “pre-incubation of native enzyme blocks probe labelling (competitive ABPP)” value at ALDH4A1 [3] was “pre-incubation of the native enzyme with the ALDH inhibitor disulfiram resulted in a lack of labeling”.
